Tests used:
[1] = molecular target: T1, HIV-1 protease (Human immunodeficiency virus type 1 group M subtype B, UniProt P04585); experiment: Protease inhibition assay (fluorometric method); assay type: biochemical
T1 construct: fluorometric HIV-1 protease assay; purchased Bachem
Procedure: Protease inhibition is evaluated using a fluorometric method. Enzyme (Bachem) is diluted to 116 μgm/ml in 50 mM NaOAC, 5 mM DTT, 2 mM EDTA, 10% glycerol (pH 5.0) and stored as 10 μl samples at -20° C., HIV protease substrates I (Molecular Probes) is diluted to a working concentration of 0.32 nmoles/μl. Enzyme (20 μl) and drug (20 μl) are added to each well of a microtiter plate as appropriate. Positive and negative control are evaluated in parallel. Fluorescence is quantitated on Labsystems Fluroskan II using 355 nm/460nm at 37° C. at time zero and at 30 minute intervals for 2 hours. In instances where autofluorescence precludes use of the fluorometric HIV-1 protease assay or confirmation of a result is required, an HPLC based protease assay can be employed.

[2] = test system: HIV-1 cell line, CEMSKI; experiment: Long term in vitro study, CEMSKI cells, reverse transcriptase analysis; assay type: cell-based; conditions: for Reverse transcriptase data: 7 μg/ml
Procedure: A microtiter-based reveres transcriptase (RT) reaction is utilized (Buckheit et al (1991) AIDS Research and Human Retroviruses 7:295-302). Tritiated thymidine triphosphate (NEN)(TTP) is resuspended in distilled water at 5 Ci/ml. Poly rA and oligo dT are prepared as a stock solution which is kept at -20° C. The RT reaction buffer is prepared fresh on a daily basis and consists of 125 μl 1M EGTA, 125 μl water, 125 μl Triton X-100, 50 μl Tris (pH 7.4), 50 μl MDDT, and 40 μl 1M MgCl2. These three solutions are mixed together in a ratio of 1 part TTP, 2.5 parts poly rA:oligo dT, 2.5 parts reaction buffer and 4 parts distilled water. Ten microliters of this reaction mixture is placed in a round bottom microtiter place and 15 μl of virus containing supernatant is added and mixed. The plate is incubated at 37° C. and incubated for 60 minutes. Following reaction, the reaction volume is spotted onto filter mats, washed 6 times for 5 minutes each in a 5% sodium phosphate buffer, 2 times for 1 minute each in distilled water, 2 times for 1 minute each in 70% ethanol, and then dried. The dried filter mat is placed in a plastic sample bag, Betaplate scintillation fluid is added and the bag is heat sealed. Incorporated radioactivity is quantified utilizing a Wallac Microbeta scintillation counter.
Acute infection of most established human cell lines with HIV- I results in the eventual establishment of a constitutive virus-producing chronically infected cell line. The cells can be passaged for long periods of time in culture without loss of virus production. These cells may be utilized to evaluate the effects of anti-HIV compounds on syncytium formation or to evaluate the effects of anti-HIV compounds on levels of virus production from these cells. […] Each of the cells contains an integrated HIV genome or provirus. […]
CEM-SS cells chronically infected with HIV isolate, for example SKI (CEM-SKI) are cultured in RPM1640 tissue culture medium supplemented with 10% fetal bovine serum and antibiotics. […] After a period of time, usually one week intervals of drug treatment, cells are evaluated to determine if the inhibitory activity of the compound has been affected by treatment of the cells with either compounds. […]
The cell populations contain integrated copies of the HIV genome and constitutively produce HIV at relatively high levels or are latently infected and only produce virus after stimulation with phorbol esters, tumor necrosis factor or IL6(U1 and ACH2). Reductions in virus products were observed when quantifying supernatant reverse transcriptase activity,
Toxicity Values are measured by XTT and activity of the compound in the tests is measured by a Reverse Transcriptase analysis. […]

**Q.** How did the EC50 [1] turn out when `CCC1(c2cccc(OC(=O)Nc3ccc(Cl)cc3)c2)CCCCN(C)C1=O` (stereo not shown) [(4-chlorophenyl)-carbamic acid, 3-(hexahydro-3-ethyl-1-methyl-2-oxo-1H-azepin-3-yl) 2 phenyl ester] was run?
**A.** > 249 µM

**Q.** What about the “Protease inhibition, mean” value ([1]; 0.1 nM) of the same molecule?
**A.** 27.9 fluorometric units

**Q.** And the “Protease inhibition, sample 1” value ([1]; 0.1 nM)?
**A.** 24.7 fluorometric units

**Q.** And the “Protease inhibition, sample 2” value ([1]; 0.1 nM)?
**A.** 31.2 fluorometric units

**Q.** What about the remaining activity at 0.0001 µM ([1]; 0.1 nM, read-out: % ND control) of the same molecule?
**A.** 98.2%

**Q.** And the “Protease inhibition, mean” value ([1]; 1 nM)?
**A.** 27.4 fluorometric units

**Q.** What about the “Protease inhibition, sample 1” value ([1]; 1 nM) of the same molecule?
**A.** 27.4 fluorometric units

**Q.** And the “Protease inhibition, sample 2” value ([1]; 1 nM)?
**A.** 27.5 fluorometric units

**Q.** What about the remaining activity at 0.001 µM ([1]; 1 nM, read-out: % ND control) of the same molecule?
**A.** 96.4%

**Q.** What about the “Protease inhibition, mean” value ([1]; 10 nM) of the same molecule?
**A.** 26.8 fluorometric units

**Q.** What about the “Protease inhibition, sample 1” value ([1]; 10 nM) of the same molecule?
**A.** 28.5 fluorometric units

**Q.** And the “Protease inhibition, sample 2” value ([1]; 10 nM)?
**A.** 25.1 fluorometric units

**Q.** And the remaining activity at 0.01 µM ([1]; 10 nM, read-out: % ND control)?
**A.** 94.2%

**Q.** And the “Protease inhibition, mean” value ([1]; 100 nM)?
**A.** 30.0 fluorometric units

**Q.** What about the “Protease inhibition, sample 1” value ([1]; 100 nM) of the same molecule?
**A.** 29.3 fluorometric units

**Q.** What about the “Protease inhibition, sample 2” value ([1]; 100 nM) of the same molecule?
**A.** 30.7 fluorometric units

**Q.** And the remaining activity at 0.1 µM ([1]; 100 nM, read-out: % ND control)?
**A.** 105%

**Q.** What about the “activity as a protease inhibitor” value ([1]; screened using a fluorometric method) of the same molecule?
**A.** did not show activity

**Q.** What about the Reverse transcriptase data ([2]; Day 4) of the same molecule?
**A.** 8474

**Q.** And the Reverse transcriptase data ([2]; Day 11)?
**A.** 7217

**Q.** And the Reverse transcriptase data ([2]; Day 18)?
**A.** 9141

**Q.** What about the “Reverse transcriptase data, continued test” value ([2]; run through 222 days) of the same molecule?
**A.** data remained consistent

From patent publication US6225307A, “Viral treatment” (priority 2000, dated 2001)
